Results reported in ChEMBL document CHEMBL5316269, “Rational Design of a New RXR Agonist Scaffold Enabling Single-Subtype Preference for RXRα, RXRβ, and RXRγ” (J Med Chem, 2023).

Key:
[1] = target: T1, Retinoic acid receptor RXR-alpha (Homo sapiens, UniProt P19793); assay: Agonist activity at human GAL4-fused RXRalpha LBD expressed in human HEK293T cells cotransfected with pFR-Luc and pRL-SV40 assessed as increase in luciferase activity incubated for 16 hrs by Dual-Glo luciferase assay; format: cell-based
T1 sequence (P19793 whole entry): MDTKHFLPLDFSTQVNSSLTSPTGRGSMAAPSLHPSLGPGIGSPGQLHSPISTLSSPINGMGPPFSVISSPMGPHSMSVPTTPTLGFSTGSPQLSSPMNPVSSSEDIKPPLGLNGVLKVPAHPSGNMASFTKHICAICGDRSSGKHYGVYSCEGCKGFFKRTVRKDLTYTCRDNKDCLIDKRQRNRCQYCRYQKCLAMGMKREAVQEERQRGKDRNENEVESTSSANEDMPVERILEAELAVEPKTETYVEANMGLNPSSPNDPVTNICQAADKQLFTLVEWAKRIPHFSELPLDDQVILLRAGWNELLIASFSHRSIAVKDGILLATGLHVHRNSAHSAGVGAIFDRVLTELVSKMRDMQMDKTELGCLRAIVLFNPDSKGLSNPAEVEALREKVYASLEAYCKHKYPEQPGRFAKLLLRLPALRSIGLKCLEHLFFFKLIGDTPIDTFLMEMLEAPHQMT

[2] = target: T2, Retinoic acid receptor RXR-gamma (Homo sapiens, UniProt P48443); assay: Agonist activity at human GAL4-fused RXRgamma LBD expressed in human HEK293T cells cotransfected with pFR-Luc and pRL-SV40 assessed as increase in luciferase activity incubated for 16 hrs by Dual-Glo luciferase assay; format: cell-based
T2 sequence (P48443 whole entry): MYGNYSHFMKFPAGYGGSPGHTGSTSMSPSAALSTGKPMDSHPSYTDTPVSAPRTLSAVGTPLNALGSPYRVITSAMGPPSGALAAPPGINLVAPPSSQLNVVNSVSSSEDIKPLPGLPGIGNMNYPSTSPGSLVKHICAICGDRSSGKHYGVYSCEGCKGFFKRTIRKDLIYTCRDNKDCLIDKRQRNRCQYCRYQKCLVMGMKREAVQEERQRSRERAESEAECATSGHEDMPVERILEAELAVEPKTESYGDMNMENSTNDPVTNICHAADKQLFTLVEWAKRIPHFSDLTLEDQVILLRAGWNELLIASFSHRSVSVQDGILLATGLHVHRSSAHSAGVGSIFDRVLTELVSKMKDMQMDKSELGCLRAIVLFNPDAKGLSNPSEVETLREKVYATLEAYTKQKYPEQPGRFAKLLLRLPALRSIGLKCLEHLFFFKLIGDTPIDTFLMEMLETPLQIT

[3] = target: T3, Retinoic acid receptor RXR-beta (Homo sapiens, UniProt P28702); assay: Agonist activity at human GAL4-fused RXRbeta LBD expressed in human HEK293T cells cotransfected with pFR-Luc and pRL-SV40 assessed as increase in luciferase activity incubated for 16 hrs by Dual-Glo luciferase assay; format: cell-based
T3 sequence (P28702 whole entry): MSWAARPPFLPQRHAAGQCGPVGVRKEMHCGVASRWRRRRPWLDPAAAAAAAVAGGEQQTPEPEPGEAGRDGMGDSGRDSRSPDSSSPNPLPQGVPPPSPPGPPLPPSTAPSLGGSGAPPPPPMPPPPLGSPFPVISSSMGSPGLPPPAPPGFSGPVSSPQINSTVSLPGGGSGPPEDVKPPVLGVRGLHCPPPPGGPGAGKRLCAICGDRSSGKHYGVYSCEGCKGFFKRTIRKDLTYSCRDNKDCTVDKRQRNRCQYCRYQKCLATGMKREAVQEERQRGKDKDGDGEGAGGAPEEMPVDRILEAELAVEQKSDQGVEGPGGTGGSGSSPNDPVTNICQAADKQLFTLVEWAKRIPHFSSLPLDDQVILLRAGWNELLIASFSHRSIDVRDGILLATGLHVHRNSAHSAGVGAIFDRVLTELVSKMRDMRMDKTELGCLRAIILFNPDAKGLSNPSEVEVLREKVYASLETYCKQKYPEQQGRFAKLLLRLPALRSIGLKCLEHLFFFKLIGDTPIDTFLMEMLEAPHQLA

HEK-293T [4] = assay: Cytotoxicity in human HEK293T cells coexpressing GAL4-fused RXRalpha LBD, pFR-Luc and pRL-SV40 assessed as reduction in cell viability at > 10 uM incubated for 16 hrs by Dual-Glo luciferase assay; format: toxicity, cell-based
HEK-293T [5] = assay: Cytotoxicity in human HEK293T cells coexpressing GAL4-fused RXRbeta LBD, pFR-Luc and pRL-SV40 assessed as reduction in cell viability at > 10 uM incubated for 16 hrs by Dual-Glo luciferase assay; format: toxicity, cell-based
HEK-293T [6] = assay: Cytotoxicity in human HEK293T cells coexpressing GAL4-fused RXRgamma LBD, pFR-Luc and pRL-SV40 assessed as reduction in cell viability at > 10 uM incubated for 16 hrs by Dual-Glo luciferase assay; format: toxicity, cell-based
PXR (NR1I2) [7] = target: T4, PXR (NR1I2) (Homo sapiens, UniProt O75469); assay: Agonist activity at human GAL4-fused PXR LBD expressed in human HEK293T cells cotransfected with pFR-Luc and pRL-SV40 assessed as increase in luciferase activity at 1 uM incubated for 16 hrs by Dual-Glo luciferase assay relative to control; format: cell-based; details: HEK293T cells expressing GAL4-fused PXR LBD, read-out: Activity
T4 sequence (O75469 whole entry): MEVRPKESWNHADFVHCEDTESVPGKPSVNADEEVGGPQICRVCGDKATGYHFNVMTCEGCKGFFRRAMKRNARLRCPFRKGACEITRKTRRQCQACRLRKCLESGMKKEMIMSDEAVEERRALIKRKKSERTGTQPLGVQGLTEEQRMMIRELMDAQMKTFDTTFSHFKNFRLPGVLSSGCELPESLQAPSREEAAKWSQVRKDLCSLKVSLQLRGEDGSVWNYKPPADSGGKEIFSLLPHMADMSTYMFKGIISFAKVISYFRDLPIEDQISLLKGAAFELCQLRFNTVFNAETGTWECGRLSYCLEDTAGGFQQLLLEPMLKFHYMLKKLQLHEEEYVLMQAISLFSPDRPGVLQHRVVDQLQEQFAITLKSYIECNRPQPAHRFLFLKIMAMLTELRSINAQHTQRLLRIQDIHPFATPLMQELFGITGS

CAR (NR1I3) [8] = target: T5, CAR (NR1I3) (Homo sapiens, UniProt Q14994); assay: Agonist activity at human GAL4-fused CAR LBD expressed in human HEK293T cells cotransfected with pFR-Luc and pRL-SV40 assessed as increase in luciferase activity at 1 uM incubated for 16 hrs by Dual-Glo luciferase assay relative to control; format: cell-based; details: HEK293T cells expressing GAL4-fused CAR LBD, read-out: Activity
T5 sequence (Q14994 whole entry): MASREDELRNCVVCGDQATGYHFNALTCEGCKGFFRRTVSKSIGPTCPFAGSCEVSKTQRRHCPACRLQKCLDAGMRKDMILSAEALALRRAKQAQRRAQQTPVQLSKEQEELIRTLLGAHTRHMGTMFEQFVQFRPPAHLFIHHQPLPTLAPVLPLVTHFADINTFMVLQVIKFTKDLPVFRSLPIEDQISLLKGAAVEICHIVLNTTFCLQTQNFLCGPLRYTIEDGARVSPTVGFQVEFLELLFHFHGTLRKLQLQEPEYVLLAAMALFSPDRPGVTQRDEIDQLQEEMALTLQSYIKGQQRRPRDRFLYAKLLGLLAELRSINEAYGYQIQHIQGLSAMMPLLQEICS

[9] = target: T1, Retinoic acid receptor RXR-alpha; assay: Binding affinity to human RXRalpha LBD and measured for 180 sec by ITC analysis
PXR (NR1I2) [10] = target: T4, PXR (NR1I2); assay: Agonist activity at human GAL4-fused PXR LBD expressed in human HEK293T cells cotransfected with pFR-Luc and pRL-SV40 assessed as increase in luciferase activity at 30 uM incubated for 16 hrs by Dual-Glo luciferase assay relative to control; format: cell-based; details: HEK293T cells expressing GAL4-fused PXR LBD, read-out: Activity
CAR (NR1I3) [11] = target: T5, CAR (NR1I3); assay: Agonist activity at human GAL4-fused CAR LBD expressed in human HEK293T cells cotransfected with pFR-Luc and pRL-SV40 assessed as increase in luciferase activity at 30 uM incubated for 16 hrs by Dual-Glo luciferase assay relative to control; format: cell-based; details: HEK293T cells expressing GAL4-fused CAR LBD, read-out: Activity
[12] = target: T2, Retinoic acid receptor RXR-gamma; assay: Binding affinity to human RXRgamma LBD and measured for 180 sec by ITC analysis

| SMILES | EC50 [1] [µM] | EC50 [2] [µM] | EC50 [3] [µM] | also measured |
| --- | --- | --- | --- | --- |
| O=C(O)c1cccc(COc2cccc3c2CCC3)c1 | 7 | – | – | – |
| Cc1ccc(OCc2ccc(C(=O)O)cc2)c2c1CCC2 | – | 5 | – | – |
| Cc1ccc(OCc2ccc(C(=O)O)c(F)c2)c2c1CCC2 | – | 11 | 2.9 | – |
| Cc1ccc(OCc2ccc(CCC(=O)O)cc2)c2c1CCC2 | – | – | 1.1 | – |
| Cc1ccc(COc2ccc(C)c3c2CCC3)cc1CC(=O)O | – | – | – | Activity (HEK-293T [4]): Toxic; Activity (HEK-293T [5]): Toxic; Activity (HEK-293T [6]): Toxic |
| Cc1ccc(COc2cccc3c2CCC3)cc1CC(=O)O | – | – | – | Activity (HEK-293T [4]): Toxic; Activity (HEK-293T [5]): Toxic; Activity (HEK-293T [6]): Toxic |
| Cc1cc(COc2cccc3c2CCC3)ccc1CC(=O)O | 43 | – | 43 | – |
| O=C(O)c1ccc(COc2cccc3c2CCC3)cc1 | 1.2 | – | 1.5 | – |
| Cc1ccc(OCc2ccc(CC(=O)O)cc2)c2c1CCC2 | 2.4 | – | 2.5 | – |
| Cc1cc(COc2cccc3c2CCC3)ccc1C(=O)O | 23 | – | – | – |
| O=C(O)CCc1ccc(COc2cccc3c2CCC3)cc1 | 0.6 | 2.6 | – | – |
| Cc1cc(COc2ccc(C)c3c2CCC3)ccc1CCC(=O)O | 0.36 | – | – | activity at 16 h, 1 µM (PXR (NR1I2) [7]): 12%; activity at 16 h, 1 µM (CAR (NR1I3) [8]): 6%; Kd [9]: 0.2 µM |
| CN(Cc1ccc(C(=O)O)cc1)c1cccc2c1CCC2 | 4.1 | 14 | – | – |
| O=C(O)c1ccc(COc2cccc3c2CCC3)cc1F | 0.8 | – | – | – |
| O=C(O)c1ccc(CNc2cccc3c2CCC3)cc1 | 3.1 | 13 | – | – |
| O=C(O)CCc1ccc(COc2cccc3c2CCC3)cc1F | 2.2 | 11 | 2.8 | – |
| Cc1ccc(OCc2ccc(CCC(=O)O)c(Cl)c2)c2c1CCC2 | 7 | 10.6 | 8 | – |
| Cc1ccc(OCc2ccc(CCC(=O)O)c(F)c2)c2c1CCC2 | – | 14 | – | activity at 16 h, 30 µM (PXR (NR1I2) [10]): 15%; activity at 16 h, 30 µM (CAR (NR1I3) [11]): 9%; Kd [12]: 6 µM |
| CC1=C2[C@H](/C=C(\C)C(=O)O)CC[C@@H](C)[C@H]2CC1 [VALERENIC ACID] | – | – | 5 | – |
